According to US9062124B2, “GIP-based mixed agonists for treatment of metabolic disorders and obesity” (priority 2008, dated 2015):
Where a SMILES comes first, the peptide text is derived from it. Bridges are numbered along the chain shown (N, C = ends).

Assays:
Format in all cases: cell-based
[1] = target: T1, GIP receptor (Homo sapiens, UniProt P48546); assay: cAMP synthesis functional assay (firefly luciferase reporter in HEK293 cells), GIP receptor; settings: Table 1; for GIP Receptor relative activity: relative to the native hormone of the indicated receptor
T1 construct: expressed in transfected cells; host or cells: HEK293
T1 sequence (P48546 22-466): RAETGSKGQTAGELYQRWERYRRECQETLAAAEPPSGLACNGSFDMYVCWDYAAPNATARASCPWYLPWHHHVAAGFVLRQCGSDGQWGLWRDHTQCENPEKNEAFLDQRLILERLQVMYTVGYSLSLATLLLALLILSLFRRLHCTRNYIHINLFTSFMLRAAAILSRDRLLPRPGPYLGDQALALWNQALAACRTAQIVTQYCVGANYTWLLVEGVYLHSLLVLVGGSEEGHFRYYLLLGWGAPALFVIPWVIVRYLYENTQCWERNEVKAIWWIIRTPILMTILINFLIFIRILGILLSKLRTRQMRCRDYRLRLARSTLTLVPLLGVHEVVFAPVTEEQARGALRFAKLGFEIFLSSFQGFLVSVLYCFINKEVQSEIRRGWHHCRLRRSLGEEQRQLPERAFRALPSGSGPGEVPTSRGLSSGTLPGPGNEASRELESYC

[2] = target: T2, glucagon receptor (Homo sapiens, UniProt P47871); assay: cAMP synthesis functional assay (firefly luciferase reporter in HEK293 cells), glucagon receptor; settings: Table 1; for Glucagon Receptor relative activity: relative to the native hormone of the indicated receptor
T2 construct: expressed in transfected cells; host or cells: HEK293

[3] = target: T3, GLP-1 receptor (Homo sapiens, UniProt P43220); assay: cAMP synthesis functional assay (firefly luciferase reporter in HEK293 cells), GLP-1 receptor; settings: Table 1; relative to the native hormone of the indicated receptor
T3 construct: expressed in transfected cells; host or cells: HEK293
T3 sequence (P43220 24-463, species assumed): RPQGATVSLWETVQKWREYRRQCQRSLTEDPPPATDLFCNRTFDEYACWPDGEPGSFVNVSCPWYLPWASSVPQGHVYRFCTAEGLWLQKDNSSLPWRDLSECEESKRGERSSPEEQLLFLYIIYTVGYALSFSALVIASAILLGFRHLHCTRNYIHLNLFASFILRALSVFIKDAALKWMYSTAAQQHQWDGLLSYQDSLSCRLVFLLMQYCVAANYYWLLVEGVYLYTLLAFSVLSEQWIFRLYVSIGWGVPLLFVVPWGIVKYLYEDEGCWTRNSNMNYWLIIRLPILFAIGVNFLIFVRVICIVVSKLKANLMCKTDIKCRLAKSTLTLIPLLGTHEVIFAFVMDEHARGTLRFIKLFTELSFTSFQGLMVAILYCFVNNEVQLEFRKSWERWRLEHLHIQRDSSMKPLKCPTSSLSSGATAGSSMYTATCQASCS

T2 sequence (P47871 26-477): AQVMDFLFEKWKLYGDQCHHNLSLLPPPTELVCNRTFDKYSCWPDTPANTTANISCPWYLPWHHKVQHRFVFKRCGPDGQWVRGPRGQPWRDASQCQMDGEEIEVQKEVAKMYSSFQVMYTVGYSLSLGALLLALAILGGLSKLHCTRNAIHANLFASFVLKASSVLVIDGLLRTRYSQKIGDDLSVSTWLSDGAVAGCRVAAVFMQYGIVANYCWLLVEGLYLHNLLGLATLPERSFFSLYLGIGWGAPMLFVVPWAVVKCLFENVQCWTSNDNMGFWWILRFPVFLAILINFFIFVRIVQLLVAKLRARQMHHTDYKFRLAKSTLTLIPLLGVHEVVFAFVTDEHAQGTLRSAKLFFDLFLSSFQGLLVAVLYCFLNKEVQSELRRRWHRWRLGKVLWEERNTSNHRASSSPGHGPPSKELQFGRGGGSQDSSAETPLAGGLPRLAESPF

SMILES | GIP Receptor relative activity [1] | EC50 ([2]; Glucagon Receptor EC50, nM) | Glucagon Receptor relative activity [2] | GLP-1 Receptor relative activity [3] | EC50 ([1]; GIP Receptor EC50, nM)
CC(C)C[C@H](NC(=O)[C@H](CC(C)C)NC(=O)[C@H](Cc1c[nH]c2ccccc12)NC(=O)[C@H](CC(N)=O)NC(=O)[C@@H](NC(=O)[C@H](Cc1ccccc1)NC(=O)[C@H](CCC(=O)O)NC(=O)[C@@H]1CCCCNC(=O)CC[C@H](NC(=O)[C@H](CC(=O)O)NC(=O)[C@H](CC(C)C)NC(=O)[C@H](Cc2ccc(O)cc2)NC(=O)[C@H](CCCCN)NC(=O)[C@H](CO)NC(=O)[C@H](Cc2ccc(O)cc2)NC(=O)[C@H](CC(=O)O)NC(=O)[C@H](CO)NC(=O)[C@@H](NC(=O)[C@H](Cc2ccccc2)NC(=O)[C@@H](NC(=O)CNC(=O)[C@H](CCC(N)=O)NC(=O)[C@H](CO)NC(=O)[C@@H](N)Cc2ccc(O)cc2)[C@@H](C)O)[C@@H](C)O)C(=O)N[C@@H](CCC(N)=O)C(=O)N[C@@H](C)C(=O)N[C@@H](C)C(=O)N1)C(C)C)C(=O)N[C@@H](C)C(=O)NCC(=O)NCC(=O)N1CCC[C@H]1C(=O)N[C@@H](CO)C(=O)N[C@@H](CO)C(=O)NCC(=O)N[C@@H](C)C(=O)N1CCC[C@H]1C(=O)N1CCC[C@H]1C(=O)N1CCC[C@H]1C(=O)N[C@@H](CO)C(N)=O [mt-127] (H-YSQGTFTSDYSKYLDEQAAKEFVNWLLAGGPSSGAPPPS-NH2; lactam 16-20; N-terminus assumed) | 10.51% | 0.044 nM | 718.39% | 87.75% | –
CC[C@H](C)[C@H](NC(=O)[C@H](Cc1ccccc1)NC(=O)[C@H](CC(=O)O)NC(=O)[C@@H]1CCCCNC(=O)CC[C@H](NC(=O)[C@H](CC(=O)O)NC(=O)[C@H](CC(C)C)NC(=O)[C@H](Cc2ccc(O)cc2)NC(=O)[C@H](CCCCN)NC(=O)[C@H](CO)NC(=O)[C@H](Cc2ccc(O)cc2)NC(=O)[C@H](CC(=O)O)NC(=O)[C@H](CO)NC(=O)[C@@H](NC(=O)[C@H](Cc2ccccc2)NC(=O)[C@@H](NC(=O)CNC(=O)[C@H](CCC(N)=O)NC(=O)[C@H](CO)NC(=O)[C@@H](N)Cc2c[nH]cn2)[C@@H](C)O)[C@@H](C)O)C(=O)N[C@@H]([C@@H](C)CC)C(=O)N[C@@H](Cc2c[nH]cn2)C(=O)N[C@@H](CCC(N)=O)C(=O)N1)C(=O)N[C@@H](C)C(=O)N[C@@H](Cc1c[nH]c2ccccc12)C(=O)N[C@@H](CC(C)C)C(=O)N[C@@H](CCSC)C(=O)N[C@@H](CC(N)=O)C(=O)NCC(=O)NCC(=O)N1CCC[C@H]1C(=O)N[C@@H](CO)C(=O)N[C@@H](CO)C(=O)NCC(=O)N[C@@H](C)C(=O)N1CCC[C@H]1C(=O)N1CCC[C@H]1C(=O)N1CCC[C@H]1C(=O)N[C@@H](CO)C(N)=O [mt-128] (H-HSQGTFTSDYSKYLDEIHQKDFIAWLMNGGPSSGAPPPS-NH2; lactam 16-20; N-terminus assumed) | 0.42% | – | 11.13% | 33.33% | 14.6 nM
CC[C@H](C)[C@H](NC(=O)[C@H](Cc1ccccc1)NC(=O)[C@H](CC(=O)O)NC(=O)[C@@H]1CCCCNC(=O)CC[C@H](NC(=O)[C@H](CC(=O)O)NC(=O)[C@H](CC(C)C)NC(=O)[C@H](Cc2ccc(O)cc2)NC(=O)[C@H](CCCCN)NC(=O)[C@H](CO)NC(=O)[C@H](Cc2ccc(O)cc2)NC(=O)[C@H](CC(=O)O)NC(=O)[C@H](CO)NC(=O)[C@@H](NC(=O)[C@H](Cc2ccccc2)NC(=O)[C@@H](NC(=O)CNC(=O)[C@H](CCC(N)=O)NC(=O)[C@H](CO)NC(=O)[C@@H](N)Cc2ccc(O)cc2)[C@@H](C)O)[C@@H](C)O)C(=O)N[C@@H]([C@@H](C)CC)C(=O)N[C@@H](Cc2c[nH]cn2)C(=O)N[C@@H](CCC(N)=O)C(=O)N1)C(=O)N[C@@H](C)C(=O)N[C@@H](Cc1c[nH]c2ccccc12)C(=O)N[C@@H](CC(C)C)C(=O)N[C@@H](CCSC)C(=O)N[C@@H](CC(N)=O)C(=O)NCC(=O)NCC(=O)N1CCC[C@H]1C(=O)N[C@@H](CO)C(=O)N[C@@H](CO)C(=O)NCC(=O)N[C@@H](C)C(=O)N1CCC[C@H]1C(=O)N1CCC[C@H]1C(=O)N1CCC[C@H]1C(=O)N[C@@H](CO)C(N)=O [mt-129] (H-YSQGTFTSDYSKYLDEIHQKDFIAWLMNGGPSSGAPPPS-NH2; lactam 16-20; N-terminus assumed) | 2.06% | – | 17.34% | 1.12% | –
